The record followed here is ChEMBL document CHEMBL3045179, “Mode of Action and QSAR Studies of Nitrification Inhibitors” (J Pestic Sci, 1997).

The subject of series [1] is Nitrosomonas europaea. The experiment in a line: Inhibition of Nitrosomonas europaea ATCC 25978-mediated nitrification activity assessed as nitrite nitrogen formation after 7 to 10 days by Griess-Ilosvay method. The series is classed as functional, organism-based. To be noted: read-out: pI50 (converted). Background: Nitrite, measured by Griess reagent, commonly stands in for NO production.

Series [2] concerns Nitrosomonas europaea. The experiment in a line: Inhibition of Nitrosomonas europaea ATCC 25978-mediated nitrification activity assessed as nitrite nitrogen formation at 10 mg/kg after 7 to 10 days by Griess-Ilosvay method relative to control. In kind it is functional.
Series [3] has as its system Nitrosomonas sp. TK794. Briefly: Inhibition of Nitrosomonas sp. TK794-mediated nitrification activity assessed as nitrite nitrogen formation at 50 mg/kg after 7 to 10 days by Griess-Ilosvay method relative to control. The series is classed as functional.
The nature of series [4]: Octanol-water partition coefficient, log P of the compound. The series is classed as physicochemical.
Series [5] relates to Nitrosomonas europaea. The experiment in a line: Inhibition of Nitrosomonas europaea ATCC 25978-mediated nitrification activity assessed as nitrite nitrogen formation at 400 mg/kg after 7 to 10 days by Griess-Ilosvay method relative to control. The series is classed as functional.
Series [6] concerns Nitrosomonas sp. TK794. Briefly: Inhibition of Nitrosomonas sp. TK794-mediated nitrification activity assessed as nitrite nitrogen formation at 500 mg/kg after 7 to 10 days by Griess-Ilosvay method relative to control. In kind it is functional.
The subject of series [7] is Nitrosomonas sp. TK794. Briefly: Inhibition of Nitrosomonas sp. TK794-mediated nitrification activity assessed as nitrite nitrogen formation at 4 mg/kg after 7 to 10 days by Griess-Ilosvay method relative to control. The series is classed as functional.
Series [8] relates to Nitrosomonas europaea. The experiment in a line: Inhibition of Nitrosomonas europaea ATCC 25978-mediated nitrification activity assessed as nitrite nitrogen formation at 2 mg/kg after 7 to 10 days by Griess-Ilosvay method relative to control. In kind it is functional.
For series [9], the system named is Nitrosomonas europaea. The experiment in a line: Inhibition of Nitrosomonas europaea ATCC 25978-mediated nitrification activity assessed as nitrite nitrogen formation at 0.1 mg/kg after 7 to 10 days by Griess-Ilosvay method relative to control. The series is classed as functional. To be noted: values are per cent of control.
Series [10] concerns Nitrosomonas sp. TK794. The experiment in a line: Inhibition of Nitrosomonas sp. TK794-mediated nitrification activity assessed as nitrite nitrogen formation at 0.1 mg/kg after 7 to 10 days by Griess-Ilosvay method relative to control. In kind it is functional.
Series [11] deals with Nitrosomonas sp. TK794. Briefly: Inhibition of Nitrosomonas sp. TK794-mediated nitrification activity assessed as nitrite nitrogen formation at 5 mg/kg after 7 to 10 days by Griess-Ilosvay method relative to control. The series is classed as functional.
Series [12] concerns Nitrosomonas europaea. Briefly: Inhibition of Nitrosomonas europaea ATCC 25978-mediated nitrification activity assessed as nitrite nitrogen formation at 5 mg/kg after 7 to 10 days by Griess-Ilosvay method relative to control. The series is classed as functional.
The subject of series [13] is Nitrosomonas europaea. The experiment in a line: Inhibition of Nitrosomonas europaea ATCC 25978-mediated nitrification activity assessed as nitrite nitrogen formation at 200 mg/kg after 7 to 10 days by Griess-Ilosvay method relative to control. In kind it is functional.
The test system of series [14] is Nitrosomonas sp. TK794. The experiment in a line: Inhibition of Nitrosomonas sp. TK794-mediated nitrification activity assessed as nitrite nitrogen formation at 25 mg/kg after 7 to 10 days by Griess-Ilosvay method relative to control. The series is classed as functional.

In general, inhibition in vivo refers to the percentage by which the read-out fell short of the control. What is called logP is the decadic logarithm of the partition coefficient of the neutral form, usually between octanol and water. In the case of `CCCCCCCCCCNc1nc(C)nc(C(Cl)(Cl)Cl)n1`, in [1], the IC50 was 9.12 µM. For the same compound, the inhibition in vivo at 10 mg/kg in series [2] worked out at 56.2%. Further, in series [3], the inhibition in vivo at 50 mg/kg was 50%. Besides, in series [4] (read-out: logP), the logP was found to be 8.27.
`CCCCCCCCCCCCCCCCNc1nc(C)nc(C(Cl)(Cl)Cl)n1` returned a logP in series [4] of 11.4. In addition, in [5], the inhibition in vivo at 400 mg/kg was determined as 45.2%. Also, the inhibition in vivo at 500 mg/kg in [6] was determined as 81%.
For `Nc1nc(N)nc(C(Cl)(Cl)Cl)n1`, the IC50 in [1] was 7.08 µM. Further, the inhibition in vivo at 4 mg/kg in series [7] was 40%. Further, the inhibition in vivo at 2 mg/kg in [8] worked out at 63.2%. Moreover, the log partition coefficient (logP) in [4] (read-out: logP) was 1.21.
One may read the residual activity as what remains of the control signal, in per cent. Take `CCNc1nc(OC)nc(C(Cl)(Cl)Cl)n1`: the IC50 in series [1] is 0.331 µM. Also, the residual activity at 0.1 mg/kg in [9] amounted to 49.1%. Also, the log partition coefficient (logP) in [4] (read-out: logP) is 3.57. For the same compound, the inhibition in vivo at 0.1 mg/kg in [10] stood at 56.8%.
With `CCCCCCCCCCCCNc1nc(C(Cl)(Cl)Cl)nc(C(Cl)(Cl)Cl)n1`, the inhibition in vivo at 5 mg/kg turned out to be 55.2% in series [11] and 50% in [12]. Besides, the IC50 in series [1] was 5.75 µM. Also, the logP in series [4] (read-out: logP) is 8.96.
For the compound `CCCCCCCCCCCCCCCCNc1nc(C(Cl)(Cl)Cl)nc(C(Cl)(Cl)Cl)n1`, in series [13], the inhibition in vivo at 200 mg/kg came out at 52.8%. The compound also gave a logP in series [4] of 11.05. In [6], the inhibition in vivo at 500 mg/kg was determined as 52.9%.
Turning to `ClC(Cl)(Cl)c1nc(C(Cl)(Cl)Cl)nc(C(Cl)(Cl)Cl)n1`, the logP in [4] (read-out: logP) amounted to 3.71. Also, in series [14], the inhibition in vivo at 25 mg/kg is 50%.
